According to PubChem BioAssay AID248 (DTP/NCI, 2004):
Where “and” joins values, the source holds several entries; their conditions need not be identical. Equal values may be shown once. Inconclusive results and toxic doses are left out.

System: L1210 leukemia ip in BDF1 mice, survival T/C
Test: NCI In Vivo Anticancer Drug Screen. Data for tumor model L1210 Leukemia (intraperitoneal) in B6D2F1 (BDF1) mice
Details: endpoint: mean survival time, higher = longer survival
Outline: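 Value reflects the ratio of survival in compound-treated mice to survival in vehicle-treated controls, with both groups carrying the same transplanted tumor.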

[1] = dose: 100.0 mg/kg/injection, schedule: Q01DX009 (ip), vehicle: saline
[2] = dose: 200.0 mg/kg/injection, schedule: Q01DX009 (ip), vehicle: saline
[3] = dose: 400.0 mg/kg/injection, schedule: Q01DX009 (ip), vehicle: saline
[4] = dose: 100.0 mg/kg/injection, schedule: Q01DX001 (ip), vehicle: carboxymethylcellulose (CMC)
[5] = dose: 200.0 mg/kg/injection, schedule: Q01DX001 (ip), vehicle: carboxymethylcellulose (CMC)
[6] = dose: 400.0 mg/kg/injection, schedule: Q01DX001 (ip), vehicle: carboxymethylcellulose (CMC)
[7] = dose: 100.0 mg/kg/injection, schedule: Q04DX002 (ip), vehicle: Klucel (hydroxypropylcellulose) (HPC)
[8] = dose: 200.0 mg/kg/injection, schedule: Q04DX002 (ip), vehicle: Klucel (hydroxypropylcellulose) (HPC)
[9] = dose: 100.0 mg/kg/injection, schedule: Q01DX009 (ip), vehicle: saline with Tween-80
[10] = dose: 200.0 mg/kg/injection, schedule: Q01DX009 (ip), vehicle: saline with Tween-80
[11] = dose: 400.0 mg/kg/injection, schedule: Q01DX009 (ip), vehicle: saline with Tween-80
[12] = dose: 100.0 mg/kg/injection, schedule: Q01DX009 (ip), vehicle: Klucel (hydroxypropylcellulose) (HPC)
[13] = dose: 100.0 mg/kg/injection, schedule: Q04DX003 (ip), vehicle: Klucel (hydroxypropylcellulose) (HPC)
[14] = dose: 200.0 mg/kg/injection, schedule: Q01DX009 (ip), vehicle: Klucel (hydroxypropylcellulose) (HPC)
[15] = dose: 200.0 mg/kg/injection, schedule: Q04DX003 (ip), vehicle: Klucel (hydroxypropylcellulose) (HPC)
[16] = dose: 400.0 mg/kg/injection, schedule: Q01DX009 (ip), vehicle: Klucel (hydroxypropylcellulose) (HPC)
[17] = dose: 400.0 mg/kg/injection, schedule: Q04DX003 (ip), vehicle: Klucel (hydroxypropylcellulose) (HPC)
[18] = dose: 50.0 mg/kg/injection, schedule: Q01DX001 (ip), vehicle: saline
[19] = dose: 100.0 mg/kg/injection, schedule: Q01DX001 (ip), vehicle: saline
[20] = dose: 200.0 mg/kg/injection, schedule: Q01DX001 (ip), vehicle: saline
[21] = dose: 50.0 mg/kg/injection, schedule: Q01DX009 (ip), vehicle: saline with Tween-80
[22] = dose: 50.0 mg/kg/injection, schedule: Q01DX009 (ip), vehicle: saline

NC(=O)c1ccc[n+](Cc2c(Cl)cccc2Cl)c1
T/C (dose: 1.56 mg/kg/injection, schedule: Q01DX009 (ip), vehicle: saline): 111 % of control | T/C (dose: 3.12 mg/kg/injection, schedule: Q01DX009 (ip), vehicle: saline): 122 % of control | T/C (dose: 6.25 mg/kg/injection, schedule: Q01DX009 (ip), vehicle: saline): 122 % of control

CC(=O)CCCN(CCO)CCO
T/C [1]: 88 % of control | T/C (dose: 100.0 mg/kg/injection, schedule: Q04DX003 (ip), vehicle: saline): 96 % of control | T/C [2]: 92 % of control | T/C (dose: 200.0 mg/kg/injection, schedule: Q04DX003 (ip), vehicle: saline): 96 % of control | T/C [3]: 96 % of control | T/C (dose: 400.0 mg/kg/injection, schedule: Q04DX003 (ip), vehicle: saline): 102 % of control

COC1C(CO)OC(n2cnc3c(N)ncnc32)C1O (stereo unspecified)
T/C (dose: 50.0 mg/kg/injection, schedule: Q01DX001 (ip), vehicle: carboxymethylcellulose (CMC)): 102 % of control | T/C [4]: 110 % of control | T/C [5]: 116 % of control | T/C [6]: 98 % of control

CN(C)CCOC(=O)c1ccc(CBr)cc1
T/C (dose: 10.0 mg/kg/injection, schedule: Q01DX009 (ip), vehicle: saline): 97 % of control | T/C (dose: 20.0 mg/kg/injection, schedule: Q01DX009 (ip), vehicle: saline): 95 % of control | T/C (dose: 40.0 mg/kg/injection, schedule: Q01DX009 (ip), vehicle: saline): 93 % of control | T/C (dose: 87.5 mg/kg/injection, schedule: Q01DX009 (ip), vehicle: saline): 101 % of control

Cn1c(Cl)c(/C=N/NC(N)=S)c2ccccc21
T/C (dose: 50.0 mg/kg/injection, schedule: Q04DX002 (ip), vehicle: Klucel (hydroxypropylcellulose) (HPC)): 91 % of control | T/C [7]: 91 % of control | T/C [8]: 87 % of control

O=c1[nH]cnc2c1nnn2C1OC(CO)C(O)C1O (stereo unspecified)
T/C (dose: 90.0 mg/kg/injection, schedule: Q01DX009 (ip), vehicle: saline): 155 % of control and 160 % of control | T/C (dose: 135.0 mg/kg/injection, schedule: Q01DX009 (ip), vehicle: saline): 163 % of control

O=C(CCN1C(=O)CCC1=O)NCCc1ccccc1
T/C [9]: 97 % of control | T/C [10]: 98 % of control | T/C [11]: 101 % of control

CC1CC(C)(C)N=C(CC(C)(O)c2ccccn2)O1 (stereo unspecified)
T/C (dose: 100.0 mg/kg/injection, schedule: Q01DX001 (ip), vehicle: saline sonified): 97 % of control | T/C (dose: 200.0 mg/kg/injection, schedule: Q01DX001 (ip), vehicle: saline sonified): 103 % of control | T/C (dose: 400.0 mg/kg/injection, schedule: Q01DX001 (ip), vehicle: saline sonified): 100 % of control

CCC[As](=O)(O)CC
T/C [1]: 103 % of control | T/C [2]: 105 % of control

CC1(C)CC(=O)CCS1
T/C [12]: 102 % of control | T/C [13]: 105 % of control | T/C [14]: 96 % of control | T/C [15]: 98 % of control | T/C [16]: 104 % of control | T/C [17]: 100 % of control

Nc1nc2c(c(=O)[nH]1)NC(CCNc1ccc(C(=O)NC(CCC(=O)O)C(=O)O)cc1)CN2 (stereo unspecified)
T/C (dose: 50.0 mg/kg/injection, schedule: Q01DX001 (ip), vehicle: other): 104 % of control | T/C [18]: 113 % of control | T/C (dose: 100.0 mg/kg/injection, schedule: Q01DX001 (ip), vehicle: other): 101 % of control | T/C [19]: 116 % of control | T/C (dose: 108.0 mg/kg/injection, schedule: Q01DX009 (ip), vehicle: other): 119 % of control | T/C (dose: 200.0 mg/kg/injection, schedule: Q01DX001 (ip), vehicle: other): 110 % of control | T/C [20]: 107 % of control | T/C (dose: 300.0 mg/kg/injection, schedule: Q01DX009 (ip), vehicle: other): 116 % of control | T/C (dose: 400.0 mg/kg/injection, schedule: Q01DX001 (ip), vehicle: other): 110 % of control | T/C (dose: 400.0 mg/kg/injection, schedule: Q01DX001 (ip), vehicle: saline): 115 % of control | T/C (dose: 500.0 mg/kg/injection, schedule: Q01DX009 (ip), vehicle: other): 112 % of control

CCOC(=O)/C(C#N)=C\c1oc2cc(C)c(C)cc2c1C
T/C [12]: 103 % of control | T/C [13]: 106 % of control | T/C [14]: 99 % of control | T/C [15]: 101 % of control | T/C [16]: 94 % of control | T/C [17]: 98 % of control

Cc1ccc([N+](=O)[O-])c(OC(=O)Nc2ccccc2Cl)c1
T/C [12]: 105 % of control | T/C [13]: 100 % of control | T/C [14]: 100 % of control | T/C [15]: 97 % of control | T/C [16]: 107 % of control | T/C [17]: 100 % of control

C=CC/C=C/C1CCCCC1
T/C [21]: 92 % of control | T/C [9]: 100 % of control | T/C [10]: 89 % of control

CCOC(=O)c1c(C)cn2c1OC(C)CC2(C)C (stereo unspecified)
T/C (dose: 100.0 mg/kg/injection, schedule: Q01DX001 (ip), vehicle: Klucel (hydroxypropylcellulose) (HPC)): 105 % of control | T/C (dose: 200.0 mg/kg/injection, schedule: Q01DX001 (ip), vehicle: Klucel (hydroxypropylcellulose) (HPC)): 94 % of control | T/C (dose: 400.0 mg/kg/injection, schedule: Q01DX001 (ip), vehicle: Klucel (hydroxypropylcellulose) (HPC)): 96 % of control

CC(=O)c1ccc2c(c1)CCN2
T/C [12]: 91 % of control | T/C [14]: 91 % of control

Cc1ccc(C(SCC(N)C(=O)O)(c2ccc(C)cc2)c2ccc(C)cc2)cc1 (stereo unspecified)
T/C (dose: 4.8 mg/kg/injection, schedule: Q01DX009 (ip), vehicle: saline): 95 % of control | T/C (dose: 6.5 mg/kg/injection, schedule: Q01DX009 (ip), vehicle: saline): 108 % of control | T/C (dose: 7.2 mg/kg/injection, schedule: Q01DX009 (ip), vehicle: saline): 104 % of control | T/C (dose: 12.5 mg/kg/injection, schedule: Q01DX009 (ip), vehicle: saline): 123 % of control | T/C (dose: 50.0 mg/kg/injection, schedule: Q01DX009 (ip), vehicle: other): 120 % of control | T/C [22]: 157 % of control | T/C [1]: 221 % of control | T/C (dose: 400.0 mg/kg/injection, schedule: Q01DX009 (ip), vehicle: other): 94 % of control

NC(=O)c1nnn(Cc2ccccc2)c1C(N)=O
T/C [7]: 104 % of control | T/C [8]: 96 % of control | T/C (dose: 400.0 mg/kg/injection, schedule: Q04DX002 (ip), vehicle: Klucel (hydroxypropylcellulose) (HPC)): 101 % of control

O=C(Cl)C1C2C=CC(C2)C1C(=O)Cl (stereo unspecified)
T/C [18]: 108 % of control | T/C [19]: 97 % of control

CC(N)(CO)CO
T/C [1]: 114 % of control | T/C (dose: 100.0 mg/kg/injection, schedule: Q04DX002 (ip), vehicle: saline): 90 % of control | T/C [2]: 122 % of control | T/C (dose: 200.0 mg/kg/injection, schedule: Q04DX002 (ip), vehicle: saline): 103 % of control | T/C [3]: 100 % of control | T/C (dose: 400.0 mg/kg/injection, schedule: Q04DX002 (ip), vehicle: saline): 103 % of control

COC(=O)CCCCCC(O)C1CCC2OC(=O)CC21C (stereo unspecified)
T/C [9]: 95 % of control | T/C [13]: 94 % of control | T/C [10]: 95 % of control | T/C [15]: 100 % of control | T/C [11]: 91 % of control | T/C [17]: 93 % of control

Cc1cc(S(=O)(=O)c2ccccc2)c(C)s1
T/C [22]: 91 % of control | T/C (dose: 50.0 mg/kg/injection, schedule: Q04DX003 (ip), vehicle: acetone): 96 % of control | T/C [19]: 98 % of control | T/C [1]: 89 % of control | T/C (dose: 100.0 mg/kg/injection, schedule: Q04DX003 (ip), vehicle: acetone): 96 % of control | T/C [20]: 101 % of control | T/C [2]: 94 % of control | T/C (dose: 200.0 mg/kg/injection, schedule: Q04DX003 (ip), vehicle: acetone): 94 % of control

CCCCC(=O)c1ccc(OC)c(C)c1
T/C [4]: 101 % of control | T/C [5]: 97 % of control | T/C [6]: 103 % of control

O=C(O)C1Cc2ccccc2CN1 (stereo unspecified)
T/C (dose: 25.0 mg/kg/injection, schedule: Q01DX009 (ip), vehicle: saline with Tween-80): 95 % of control | T/C [21]: 98 % of control | T/C [9]: 96 % of control and 106 % of control
